Experiment: xn = mol fraction of the nth substance listed
Conditions: 101 kPa, Liquid; for viscosity: Capillary tube (Ostwald / Ubbelohde) method; for mass density: Vibrating tube method

ClC(Cl)Cl [trichloromethane] + CC(=O)CC(C)C
Conditions	mass density, 283.15 K [kg/m3]	mass density, 293.15 K [kg/m3]	mass density, 303.15 K [kg/m3]	mass density, 313.15 K [kg/m3]	viscosity, 283.15 K [mPa·s]	viscosity, 293.15 K [mPa·s]	viscosity, 303.15 K [mPa·s]	viscosity, 313.15 K [mPa·s]
x1 = 0.0847	849	839.4	829.9	820	0.685	0.598	0.531	0.472
x1 = 0.1841	898.2	888.1	878	867.5	0.719	0.63	0.558	0.493
x1 = 0.276	947.2	936.6	925.8	914.9	0.755	0.659	0.577	0.513
x1 = 0.3529	991.1	980.1	968.7	957.1	0.78	0.678	0.596	0.526
x1 = 0.4467	1048.8	1037	1025	1012.6	0.808	0.696	0.616	0.542
x1 = 0.506	1087.7	1075.3	1062.8	1050	0.812	0.703	0.62	0.551
x1 = 0.6079	1159.3	1146	1132.5	1118.7	0.814	0.704	0.623	0.557
x1 = 0.6959	1226.7	1212.4	1197.9	1183.2	0.798	0.696	0.619	0.554
x1 = 0.8213	1332.6	1316.7	1300.6	1284.1	0.746	0.664	0.592	0.533
x1 = 0.9067	1412.3	1395	1377.7	1359.8	0.689	0.629	0.56	0.503
x1 = 1	1507.3	1488.4	1469.4	1450	0.629	0.573	0.516	0.468

Reference: the NIST ThermoML archive (doi:10.1016/j.jct.2006.07.004)
